Measured values: patent publication EP0705591A2, “Cyclic amidocarboxy surfactants, synthesis and use thereof” (STEPAN COMPANY, priority 1989, dated 1991)

How the values were obtained:
[1] = Thermal stability followed by IR spectroscopy; format: physicochemical
Procedure: Thermal stability studies were conducted with neat (100% actives) sample of ammonium N-dodecylphthalamate mulled on sodium chloride plates. […]

[2] = Solubility in various solvents (vehicles); format: physicochemical; design: key: I - INSOLUBLE; S - SOLUBLE; conditions: 1% actives
Procedure: (§1) Sodium N-octadecylphthalamate, 1% actives, was evaluated for solubility in various solvents and under cold storage (4°C) and freeze-thaw conditions.

[3] = Cold storage and freeze-thaw stability of solutions; format: physicochemical; design: key: P - PASS; conditions: 1% actives; for STABILITY FREEZE THAW: 3 freezing/thawing cycles; for STABILITY COLD STORAGE: 24 hours at 4 °C
Procedure: as §1

[4] = Emulsification in foodstuffs; conditions: about 1% by weight, substituted for egg yolk
Procedure: Sodium N-octadecylphthalamate was added to a standard cup-cake recipe at actives levels of 0% (control), 1%, 2%, 3%, 4%, and 5%. The N-octadecylphthalamate was admixed into a typical batter as a partial replacement for the shortening, margarine or butter called for in the recipe, baked at a uniform temperature (about 176°C) and time (about 25 minutes). […] A mayonnaise formulation containing about 1% by weight, based on a 100% total weight of formulation, of sodium N-octadecylphthalamate was prepared, with the N-octadecylphthalamate being substituted for egg yolk in a given recipe. […] A dog food was prepared by admixing about 200g of "Generic" beef-flavored dog food with 3g of 100% actives sodium N-octadecylphthalamate. Samples of this dog food were exposed to various temperatures (i.e., 0°C, 43°C and 50°C).

CCCCCCCCCCCCCCCCCCNC(=O)c1ccccc1C(=O)[O-].[Na+] [Sodium N-octadecylphthalamate, Sodium N-Octadecylphthalamate]
imidation ([1]; 3.5 hours at 150°C): only a very small degree of imidation | imidation ([1]; 64 hours at 150°C): significant formation of N-octadecylphthalimide | APPEARANCE 24 HOURS @ RT^0 AFTER HEAT ([2]; vehicle AMMONYX^R LO): S | APPEARANCE 25^0C ([2]; vehicle AMMONYX^R LO): S | APPEARANCE 50^0C ([2]; vehicle AMMONYX^R LO): S | APPEARANCE 24 HOURS @ RT^0 AFTER HEAT ([2]; vehicle AMPHOSOL^R): S | APPEARANCE 25^0C ([2]; vehicle AMPHOSOL^R): I | APPEARANCE 50^0C ([2]; vehicle AMPHOSOL^R): S | APPEARANCE 24 HOURS @ RT^0 AFTER HEAT ([2]; vehicle MAKON^R 10): S | APPEARANCE 25^0C ([2]; vehicle MAKON^R 10): I | APPEARANCE 50^0C ([2]; vehicle MAKON^R 10): I | APPEARANCE 24 HOURS @ RT^0 AFTER HEAT ([2]; vehicle NINOL^R 40-CO): S | APPEARANCE 25^0C ([2]; vehicle NINOL^R 40-CO): I | APPEARANCE 50^0C ([2]; vehicle NINOL^R 40-CO): S | APPEARANCE 24 HOURS @ RT^0 AFTER HEAT ([2]; vehicle STEPANATE^R): I | APPEARANCE 25^0C ([2]; vehicle STEPANATE^R): I | APPEARANCE 50^0C ([2]; vehicle STEPANATE^R): I | STABILITY FREEZE THAW ([3]; vehicle AMMONYX^R LO): P | STABILITY COLD STORAGE ([3]; vehicle AMMONYX^R LO): P | STABILITY FREEZE THAW ([3]; vehicle AMPHOSOL^R): P | STABILITY COLD STORAGE ([3]; vehicle AMPHOSOL^R): P | STABILITY FREEZE THAW ([3]; vehicle MAKON^R 10): P | STABILITY COLD STORAGE ([3]; vehicle MAKON^R 10): P | STABILITY FREEZE THAW ([3]; vehicle NINOL^R 40-CO): P | STABILITY COLD STORAGE ([3]; vehicle NINOL^R 40-CO): P | mayonnaise emulsion stability [4]: excellent stability
